In US20250270172A1, “Pyrimidine Derivatives As Modulators of the 5-HT2A Serotonin Receptor Useful For The Treatment of Disorders Related Thereto” (Arena Pharmaceuticals, Inc., priority 2020, published 2025):

Target: 5-HT2A (Homo sapiens (Human), UniProt P28223)
Assay: Radioligand binding assay, [^3H]5-HT competition, 5-HT2A
Settings: [^3H]5-HT radioligand, membranes of HEK293 cells expressing recombinant 5-HT2A; Ki from IC50 by Cheng-Prusoff; read-out: 5-HT2A serotonin binding Ki value

5-HT2A, sequence (P28223 whole entry): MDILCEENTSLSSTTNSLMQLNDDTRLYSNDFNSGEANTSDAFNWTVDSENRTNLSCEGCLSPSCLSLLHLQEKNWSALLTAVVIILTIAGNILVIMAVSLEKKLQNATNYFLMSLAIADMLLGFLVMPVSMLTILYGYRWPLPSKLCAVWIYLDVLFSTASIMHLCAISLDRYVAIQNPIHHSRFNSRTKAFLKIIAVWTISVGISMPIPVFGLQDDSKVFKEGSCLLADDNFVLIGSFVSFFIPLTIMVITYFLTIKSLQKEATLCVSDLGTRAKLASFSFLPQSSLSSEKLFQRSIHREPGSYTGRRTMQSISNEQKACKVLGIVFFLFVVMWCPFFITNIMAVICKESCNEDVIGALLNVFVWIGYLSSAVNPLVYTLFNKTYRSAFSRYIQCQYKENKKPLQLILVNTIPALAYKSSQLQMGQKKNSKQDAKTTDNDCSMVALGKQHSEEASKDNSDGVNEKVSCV

Compound	Ki [nM]
Cc1ncnc(C)c1-c1cc(NC(=O)Cn2cccn2)ccc1OCCN1CCCC1 [Compound 236, N-(3-(4,6-dimethylpyrimidin-5-yl)-4-(2-(pyrrolidin-1-yl)ethoxy)phenyl)-2-(1H-pyrazol-1-yl)acetamide]	21.4
Cc1ncnc(C)c1-c1cc(NC(=O)CN2CCn3cccc3C2)ccc1OCCN1CCCC1 [Compound 237, 2-(3,4-dihydro-1H-pyrrolo[1,2-a]pyrazin-2-yl)-N-[3-(4,6-dimethylpyrimidin-5-yl)-4-(2-pyrrolidin-1-ylethoxy)phenyl]acetamide]	12.7
Cc1ncnc(C)c1-c1cc(NC(=O)CN2CCn3nccc3C2)ccc1OCCN1CCCC1 [Compound 239, 2-(6,7-dihydropyrazolo[1,5-a]pyrazin-5 (4H)-yl)-N-(3-(4,6-dimethylpyrimidin-5-yl)-4-(2-(pyrrolidin-1-yl)ethoxy)phenyl)acetamide]	92.3
Cc1ncnc(C)c1-c1cc(NC(=O)CN2CCn3cnnc3C2)ccc1OCCN1CCCC1 [Compound 240, 2-(5,6-dihydro-[1,2,4]triazolo[4,3-a]pyrazin-7 (8H)-yl)-N-(3-(4,6-dimethylpyrimidin-5-yl)-4-(2-(pyrrolidin-1-yl)ethoxy)phenyl)acetamide]	60900
Cc1ncnc(C)c1-c1cc(NC(=O)COC2CC2)ccc1OCCN1CCCC1 [Compound 241, 2-(cyclopropoxy)-N-[3-(4,6-dimethylpyrimidin-5-yl)-4-(2-pyrrolidin-1-ylethoxy)phenyl]acetamide]	27.8
Cc1ncnc(C)c1-c1cc(NC(=O)COC2CCC2)ccc1OCCN1CCCC1 [Compound 242, 2-cyclobutoxy-N-(3-(4,6-dimethylpyrimidin-5-yl)-4-(2-(pyrrolidin-1-yl)ethoxy)phenyl)acetamide]	37.6
Cc1ncnc(C)c1-c1cc(NC(=O)[C@@]23COC[C@@H]2C3)ccc1OCCN1CCCC1 [Compound 246, (1R,5R)—N-[3-(4,6-dimethylpyrimidin-5-yl)-4-(2-pyrrolidin-1-ylethoxy)phenyl]-3-oxabicyclo[3.1.0]hexane-1-carboxamide]	16.3
Cc1ncnc(C)c1-c1cc(NC(=O)CCc2ccc(F)cc2)ccc1OCCN1CCCC1 [Compound 248, N-[3-(4,6-dimethylpyrimidin-5-yl)-4-(2-pyrrolidin-1-ylethoxy)phenyl]-3-(4-fluorophenyl)propanamide]	0.845
Cc1ncnc(C)c1-c1cc(NC(=O)Cc2cccn2C)ccc1OCCN1CCCC1 [Compound 249, N-(3-(4,6-dimethylpyrimidin-5-yl)-4-(2-(pyrrolidin-1-yl)ethoxy)phenyl)-2-(1-methyl-1H-pyrrol-2-yl)acetamide]	78.3
Cc1ncnc(C)c1-c1cc(NC(=O)Cc2ccccc2)ccc1OCCN1CCCC1 [Compound 251, N-(3-(4,6-dimethylpyrimidin-5-yl)-4-(2-(pyrrolidin-1-yl)ethoxy)phenyl)-2-phenylacetamide]	2.05
Cc1ncnc(C)c1-c1cc(NC(=O)C(C)c2ccccc2)ccc1OCCN1CCCC1 (centres unmarked) [Compound 252, N-(3-(4,6-dimethylpyrimidin-5-yl)-4-(2-(pyrrolidin-1-yl)ethoxy)phenyl)-2-phenylpropanamide]	9.53
Cc1ncnc(C)c1-c1cc(NC(=O)C2(c3ccccc3)CC2)ccc1OCCN1CCCC1 [Compound 253, N-(3-(4,6-dimethylpyrimidin-5-yl)-4-(2-(pyrrolidin-1-yl)ethoxy)phenyl)-1-phenylcyclopropane-1-carboxamide]	6.34
Cc1ncnc(C)c1-c1cc(NC(=O)Cc2ccc(F)cc2)ccc1OCCN1CCCC1 [Compound 254, N-(3-(4,6-dimethylpyrimidin-5-yl)-4-(2-(pyrrolidin-1-yl)ethoxy)phenyl)-2-(4-fluorophenyl)acetamide]	1.3
Cc1ncnc(C)c1-c1cc(NC(=O)CCc2ccccc2)ccc1OCCN1CCCC1 [Compound 255, N-(3-(4,6-dimethylpyrimidin-5-yl)-4-(2-(pyrrolidin-1-yl)ethoxy)phenyl)-3-phenylpropanamide]	1.72
Cc1ncnc(C)c1-c1cc(NC(=O)CCc2cocn2)ccc1OCCN1CCCC1 [Compound 258, N-[3-(4,6-dimethylpyrimidin-5-yl)-4-(2-pyrrolidin-1-ylethoxy)phenyl]-3-oxazol-4-yl-propanamide]	10.8
Cc1nc(CCC(=O)Nc2ccc(OCCN3CCCC3)c(-c3c(C)ncnc3C)c2)co1 [Compound 259, N-[3-(4,6-dimethylpyrimidin-5-yl)-4-(2-pyrrolidin-1-ylethoxy)phenyl]-3-(2-methyloxazol-4-yl)propanamide]	19.6
Cc1ncnc(C)c1-c1cc(NC(=O)Cc2cnco2)ccc1OCCN1CCCC1 [Compound 260, N-[3-(4,6-dimethylpyrimidin-5-yl)-4-(2-pyrrolidin-1-ylethoxy)phenyl]-2-oxazol-5-yl-acetamide]	63.3
Cc1nc(CC(=O)Nc2ccc(OCCN3CCCC3)c(-c3c(C)ncnc3C)c2)no1 [Compound 261, N-(3-(4,6-dimethylpyrimidin-5-yl)-4-(2-(pyrrolidin-1-yl)ethoxy)phenyl)-2-(5-methyl-1,2,4-oxadiazol-3-yl)acetamide]	91.7
Cc1ncnc(C)c1-c1cc(NC(=O)Cc2ccon2)ccc1OCCN1CCCC1 [Compound 262, N-(3-(4,6-dimethylpyrimidin-5-yl)-4-(2-(pyrrolidin-1-yl)ethoxy)phenyl)-2-(isoxazol-3-yl)acetamide]	35.7
Cc1cc(CC(=O)Nc2ccc(OCCN3CCCC3)c(-c3c(C)ncnc3C)c2)on1 [Compound 264, N-(3-(4,6-dimethylpyrimidin-5-yl)-4-(2-(pyrrolidin-1-yl)ethoxy)phenyl)-2-(3-methylisoxazol-5-yl)acetamide]	9.18
Cc1noc(CC(=O)Nc2ccc(OCCN3CCCC3)c(-c3c(C)ncnc3C)c2)n1 [Compound 265, N-(3-(4,6-dimethylpyrimidin-5-yl)-4-(2-(pyrrolidin-1-yl)ethoxy)phenyl)-2-(3-methyl-1,2,4-oxadiazol-5-yl)acetamide]	18.2
Cc1ncnc(C)c1-c1cc(NC(=O)Cc2cc(C)n(C)n2)ccc1OCCN1CCCC1 [Compound 267, 2-(1,5-dimethyl-1H-pyrazol-3-yl)-N-(3-(4,6-dimethylpyrimidin-5-yl)-4-(2-(pyrrolidin-1-yl)ethoxy)phenyl)acetamide]	692
Cc1ncnc(C)c1-c1cc(NC(=O)Cc2ccn(C)n2)ccc1OCCN1CCCC1 [Compound 269, N-[3-(4,6-dimethylpyrimidin-5-yl)-4-(2-pyrrolidin-1-ylethoxy)phenyl]-2-(1-methylpyrazol-3-yl)acetamide]	559
Cc1ncnc(C)c1-c1cc(NC(=O)CCc2ccn(C)n2)ccc1OCCN1CCCC1 [Compound 270, N-[3-(4,6-dimethylpyrimidin-5-yl)-4-(2-pyrrolidin-1-ylethoxy)phenyl]-3-(1-methylpyrazol-3-yl)propanamide]	51.6
COc1cccc(CC(=O)Nc2ccc(OCCN3CCCC3)c(-c3c(C)ncnc3C)c2)c1 [Compound 274, N-(3-(4,6-dimethylpyrimidin-5-yl)-4-(2-(pyrrolidin-1-yl)ethoxy)phenyl)-2-(3-methoxyphenyl)acetamide]	3.92
Cc1ncnc(C)c1-c1cc(NC(=O)Cc2cncc(F)c2)ccc1OCCN1CCCC1 [Compound 277, N-(3-(4,6-dimethylpyrimidin-5-yl)-4-(2-(pyrrolidin-1-yl)ethoxy)phenyl)-2-(5-fluoropyridin-3-yl)acetamide]	33.4
